# In publication PMC6719666 (Acta Crystallographica. Section D, Structural Biology, 2019):
# Biological target: T1, BcGDHγα (Burkholderia cepacia, UniProt Q8GQE7)
# T1 construct: gene gdhAlpha; alpha (539 aa, 60 kDa) with C-terminal His tag; gamma 168 aa with signal peptide, mature 121 aa (13 kDa); pTrc99A, E. coli BL21(DE3); no beta-subunit; heterodimer; purified by Ni and cation exchange; with Glucose dehydrogenase gamma subunit (hitchhiker protein, small subunit)
# T1 sequence (Q8GQE7 1-539): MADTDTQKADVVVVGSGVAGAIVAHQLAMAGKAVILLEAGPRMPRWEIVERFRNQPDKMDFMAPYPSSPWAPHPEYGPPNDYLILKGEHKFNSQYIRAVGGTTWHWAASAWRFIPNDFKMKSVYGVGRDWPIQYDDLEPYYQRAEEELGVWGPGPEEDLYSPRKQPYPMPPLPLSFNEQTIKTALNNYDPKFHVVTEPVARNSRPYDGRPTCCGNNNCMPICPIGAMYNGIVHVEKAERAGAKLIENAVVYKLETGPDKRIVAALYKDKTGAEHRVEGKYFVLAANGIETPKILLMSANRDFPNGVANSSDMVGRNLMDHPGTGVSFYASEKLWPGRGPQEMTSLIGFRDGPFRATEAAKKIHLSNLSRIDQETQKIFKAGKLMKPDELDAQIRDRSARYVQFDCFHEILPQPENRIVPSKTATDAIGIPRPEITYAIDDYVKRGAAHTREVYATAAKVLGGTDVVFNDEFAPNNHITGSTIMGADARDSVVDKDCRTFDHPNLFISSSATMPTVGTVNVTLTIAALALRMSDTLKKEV
# T1 sequence (A0A0H3KLY3 48-168 partner): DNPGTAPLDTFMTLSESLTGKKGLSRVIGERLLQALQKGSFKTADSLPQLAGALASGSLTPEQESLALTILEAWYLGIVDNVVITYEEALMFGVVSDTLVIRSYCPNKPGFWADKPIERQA
# Assay: X-ray crystal structure, […] Å
# Format: binding
# Settings: covalent; C8M of FAD to His105 of the alpha-subunit
compound,measurement,value
Cc1cc2nc3c(=O)[nH]c(=O)nc-3n(C[C@H](O)[C@H](O)[C@H](O)COP(=O)(O)OP(=O)(O)OC[C@H]3O[C@@H](n4cnc5c(N)ncnc54)[C@H](O)[C@@H]3O)c2cc1C [FAD],"X-ray crystal structure, 2.6 Å",a covalent bond was deemed to form between FAD and His105 in the α-subunit
